From paper PMC3747596 (PLoS ONE, 2013)
Like-named read-outs stand apart in the source and are kept apart here.

Assays:
human NOP = target: T1, human NOP (Homo sapiens, UniProt P41146); assay: NOP binding against [3H]N/OFQ, HEK293T membranes
T1 construct: expressed in transfected cells; host or cells: HEK293T

5-HT1a = target: T2, 5-HT1a (Homo sapiens, UniProt P08908); assay: Radioligand displacement, 5-HT1a; assay type: binding
T2 sequence (P08908 1-422): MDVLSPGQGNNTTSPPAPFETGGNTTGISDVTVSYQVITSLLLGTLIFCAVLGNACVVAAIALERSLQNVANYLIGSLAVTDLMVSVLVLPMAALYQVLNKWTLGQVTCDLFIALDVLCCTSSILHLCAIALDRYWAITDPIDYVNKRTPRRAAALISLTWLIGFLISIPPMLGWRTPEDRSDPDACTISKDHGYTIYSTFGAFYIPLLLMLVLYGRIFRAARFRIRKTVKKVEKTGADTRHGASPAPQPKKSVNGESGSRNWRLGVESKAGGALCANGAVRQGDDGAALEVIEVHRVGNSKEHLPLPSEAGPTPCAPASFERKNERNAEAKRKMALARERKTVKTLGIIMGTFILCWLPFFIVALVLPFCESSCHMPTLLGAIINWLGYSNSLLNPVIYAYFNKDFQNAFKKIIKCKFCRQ

H4 = H4 (Homo sapiens, UniProt Q9H3N8); assay: Radioligand displacement, H4; assay type: binding
M5 = M5 (Homo sapiens, UniProt P08912); assay: Radioligand displacement, M5; assay type: binding
5-HT1e = 5-HT1e (Homo sapiens, UniProt P28566); assay: Radioligand displacement, 5-HT1e; assay type: binding
α1D = target: T3, α1D (Homo sapiens, UniProt P25100); assay: Radioligand displacement, α1D; assay type: binding
T3 sequence (P25100 1-572): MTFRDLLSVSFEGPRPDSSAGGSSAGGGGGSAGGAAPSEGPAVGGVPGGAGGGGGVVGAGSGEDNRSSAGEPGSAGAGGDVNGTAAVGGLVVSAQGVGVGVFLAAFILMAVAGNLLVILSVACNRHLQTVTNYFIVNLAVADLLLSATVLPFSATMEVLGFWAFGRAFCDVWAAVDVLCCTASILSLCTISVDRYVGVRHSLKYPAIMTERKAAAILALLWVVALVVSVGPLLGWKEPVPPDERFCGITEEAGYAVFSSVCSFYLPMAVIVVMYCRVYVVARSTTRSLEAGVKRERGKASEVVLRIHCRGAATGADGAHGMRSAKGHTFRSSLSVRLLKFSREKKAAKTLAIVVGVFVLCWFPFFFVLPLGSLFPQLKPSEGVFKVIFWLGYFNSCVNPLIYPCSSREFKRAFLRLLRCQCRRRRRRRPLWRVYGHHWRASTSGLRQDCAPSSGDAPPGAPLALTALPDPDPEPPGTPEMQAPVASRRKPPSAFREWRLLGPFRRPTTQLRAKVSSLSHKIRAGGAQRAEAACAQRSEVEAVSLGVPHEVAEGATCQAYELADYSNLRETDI

M2 = M2 (Homo sapiens, UniProt P08172); assay: biochemical; assay type: binding
5-HT5a = 5-HT5a (Homo sapiens, UniProt P47898); assay: Radioligand displacement, 5-HT5a; assay type: binding
H3 = H3 (Cavia porcellus, UniProt Q9JI35); assay: Radioligand displacement, H3; assay type: binding, Guinea Pig
5-HT2a = 5-HT2a (Homo sapiens, UniProt P28223); assay: Radioligand displacement, 5-HT2a; assay type: binding
5-HT6 = 5-HT6 (Homo sapiens, UniProt P50406); assay: Radioligand displacement, 5-HT6; assay type: binding
H1 = H1 (Homo sapiens, UniProt P35367); assay: Radioligand displacement, H1; assay type: binding
α1B = target: T4, α1B (Homo sapiens, UniProt P35368); assay: Radioligand displacement, α1B; assay type: binding
T4 sequence (P35368 1-520): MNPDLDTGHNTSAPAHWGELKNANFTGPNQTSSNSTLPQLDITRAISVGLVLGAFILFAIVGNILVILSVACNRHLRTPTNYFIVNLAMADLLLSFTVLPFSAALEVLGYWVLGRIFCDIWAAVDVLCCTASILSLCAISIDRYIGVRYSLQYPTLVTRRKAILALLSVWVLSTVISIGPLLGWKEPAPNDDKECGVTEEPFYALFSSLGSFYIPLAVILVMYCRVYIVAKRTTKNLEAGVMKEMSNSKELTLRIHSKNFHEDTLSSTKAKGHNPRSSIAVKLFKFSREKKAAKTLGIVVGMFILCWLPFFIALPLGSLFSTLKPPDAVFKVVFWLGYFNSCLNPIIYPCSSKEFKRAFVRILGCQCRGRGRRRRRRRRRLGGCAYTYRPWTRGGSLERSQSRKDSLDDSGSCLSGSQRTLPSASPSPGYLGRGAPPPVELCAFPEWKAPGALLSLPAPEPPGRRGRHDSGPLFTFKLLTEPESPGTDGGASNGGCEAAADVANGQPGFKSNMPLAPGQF

β3 = β3 (Homo sapiens, UniProt P13945); assay: Radioligand displacement, β3; assay type: binding
D3 = D3 (Homo sapiens, UniProt P35462); assay: Radioligand displacement, D3; assay type: binding
5-HT3 = target: T5, 5-HT3 (Homo sapiens, UniProt P46098); assay: Radioligand displacement, 5-HT3; assay type: binding
T5 sequence (P46098 24-478): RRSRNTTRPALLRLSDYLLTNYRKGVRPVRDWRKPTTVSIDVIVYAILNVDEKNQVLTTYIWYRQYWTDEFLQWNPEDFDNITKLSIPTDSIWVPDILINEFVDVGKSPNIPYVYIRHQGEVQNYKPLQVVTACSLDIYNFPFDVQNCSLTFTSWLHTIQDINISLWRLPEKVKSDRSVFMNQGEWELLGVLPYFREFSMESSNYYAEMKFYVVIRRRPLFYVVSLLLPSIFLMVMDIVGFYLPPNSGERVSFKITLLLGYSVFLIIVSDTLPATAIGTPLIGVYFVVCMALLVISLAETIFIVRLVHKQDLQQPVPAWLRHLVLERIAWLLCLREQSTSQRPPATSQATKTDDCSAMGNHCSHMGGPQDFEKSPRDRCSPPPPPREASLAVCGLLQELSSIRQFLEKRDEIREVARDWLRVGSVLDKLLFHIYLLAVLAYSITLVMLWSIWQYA

[1] = [3H] radioligand 8-OH-DPAT, Human, Cloned
[2] = Ki, [3H] radioligand QNB, Human, Cloned
[3] = Ki, [3H] radioligand Prazosin, Human, Cloned
[4] = [3H] radioligand QNB, Human, Cloned, read-out: Ki
[5] = [3H] radioligand LSD, Human, Cloned, read-out: Ki

Chain of D3 (P35462 whole entry): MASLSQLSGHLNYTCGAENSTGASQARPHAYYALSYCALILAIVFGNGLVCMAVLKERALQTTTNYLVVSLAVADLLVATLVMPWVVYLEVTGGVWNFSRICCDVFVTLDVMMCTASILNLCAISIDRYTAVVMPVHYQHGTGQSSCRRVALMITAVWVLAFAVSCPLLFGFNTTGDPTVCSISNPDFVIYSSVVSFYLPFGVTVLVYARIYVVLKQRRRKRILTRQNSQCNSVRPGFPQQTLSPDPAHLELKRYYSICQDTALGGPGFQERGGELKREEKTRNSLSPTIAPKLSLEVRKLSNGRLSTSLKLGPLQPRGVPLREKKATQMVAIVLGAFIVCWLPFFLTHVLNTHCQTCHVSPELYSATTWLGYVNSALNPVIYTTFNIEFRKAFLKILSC
Chain of M5 (P08912 whole entry): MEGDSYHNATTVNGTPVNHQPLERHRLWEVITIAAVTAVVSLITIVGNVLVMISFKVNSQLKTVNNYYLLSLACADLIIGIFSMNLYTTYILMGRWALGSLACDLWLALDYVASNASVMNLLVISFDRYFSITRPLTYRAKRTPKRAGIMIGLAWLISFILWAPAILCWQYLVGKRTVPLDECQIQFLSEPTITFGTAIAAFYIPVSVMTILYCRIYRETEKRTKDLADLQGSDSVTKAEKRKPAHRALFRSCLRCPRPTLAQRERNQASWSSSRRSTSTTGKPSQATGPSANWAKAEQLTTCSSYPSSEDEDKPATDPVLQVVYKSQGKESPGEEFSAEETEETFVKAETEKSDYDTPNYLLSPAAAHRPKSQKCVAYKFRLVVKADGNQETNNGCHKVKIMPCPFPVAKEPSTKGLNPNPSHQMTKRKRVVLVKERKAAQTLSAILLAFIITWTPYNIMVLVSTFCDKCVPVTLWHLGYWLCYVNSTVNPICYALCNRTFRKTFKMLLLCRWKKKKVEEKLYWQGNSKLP
Chain of β3 (P13945 whole entry): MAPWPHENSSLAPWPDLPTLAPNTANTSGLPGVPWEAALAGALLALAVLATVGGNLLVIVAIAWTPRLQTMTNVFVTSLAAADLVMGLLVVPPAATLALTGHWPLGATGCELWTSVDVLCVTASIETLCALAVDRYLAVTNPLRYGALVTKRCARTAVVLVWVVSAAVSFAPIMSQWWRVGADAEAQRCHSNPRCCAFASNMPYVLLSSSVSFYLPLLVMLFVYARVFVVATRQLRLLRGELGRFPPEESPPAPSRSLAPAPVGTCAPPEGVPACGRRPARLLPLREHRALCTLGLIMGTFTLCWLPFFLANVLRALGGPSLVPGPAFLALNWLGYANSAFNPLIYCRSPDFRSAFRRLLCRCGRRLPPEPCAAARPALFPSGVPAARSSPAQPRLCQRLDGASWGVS
Chain of 5-HT6 (P50406 whole entry): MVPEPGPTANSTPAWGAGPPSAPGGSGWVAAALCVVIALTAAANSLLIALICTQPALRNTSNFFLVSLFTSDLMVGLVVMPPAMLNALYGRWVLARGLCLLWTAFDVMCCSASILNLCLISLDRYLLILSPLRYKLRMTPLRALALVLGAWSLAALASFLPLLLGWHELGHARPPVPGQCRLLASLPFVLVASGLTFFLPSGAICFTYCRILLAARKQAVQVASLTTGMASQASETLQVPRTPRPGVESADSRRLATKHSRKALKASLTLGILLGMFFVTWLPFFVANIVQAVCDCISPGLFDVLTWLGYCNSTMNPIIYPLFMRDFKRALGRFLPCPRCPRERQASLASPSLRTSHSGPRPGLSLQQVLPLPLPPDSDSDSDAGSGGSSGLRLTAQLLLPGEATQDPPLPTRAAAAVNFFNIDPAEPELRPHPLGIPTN
Chain of H4 (Q9H3N8 whole entry): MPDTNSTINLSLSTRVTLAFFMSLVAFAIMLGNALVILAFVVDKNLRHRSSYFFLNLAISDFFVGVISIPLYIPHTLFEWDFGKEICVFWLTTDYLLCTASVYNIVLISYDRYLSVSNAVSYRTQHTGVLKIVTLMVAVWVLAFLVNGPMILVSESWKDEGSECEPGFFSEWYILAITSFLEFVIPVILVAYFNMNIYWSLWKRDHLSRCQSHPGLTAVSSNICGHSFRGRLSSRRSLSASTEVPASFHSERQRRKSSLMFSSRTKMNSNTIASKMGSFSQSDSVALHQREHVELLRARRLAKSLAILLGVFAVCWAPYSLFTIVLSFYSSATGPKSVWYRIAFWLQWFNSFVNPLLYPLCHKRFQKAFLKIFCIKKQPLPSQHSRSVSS
Chain of M2 (P08172 whole entry): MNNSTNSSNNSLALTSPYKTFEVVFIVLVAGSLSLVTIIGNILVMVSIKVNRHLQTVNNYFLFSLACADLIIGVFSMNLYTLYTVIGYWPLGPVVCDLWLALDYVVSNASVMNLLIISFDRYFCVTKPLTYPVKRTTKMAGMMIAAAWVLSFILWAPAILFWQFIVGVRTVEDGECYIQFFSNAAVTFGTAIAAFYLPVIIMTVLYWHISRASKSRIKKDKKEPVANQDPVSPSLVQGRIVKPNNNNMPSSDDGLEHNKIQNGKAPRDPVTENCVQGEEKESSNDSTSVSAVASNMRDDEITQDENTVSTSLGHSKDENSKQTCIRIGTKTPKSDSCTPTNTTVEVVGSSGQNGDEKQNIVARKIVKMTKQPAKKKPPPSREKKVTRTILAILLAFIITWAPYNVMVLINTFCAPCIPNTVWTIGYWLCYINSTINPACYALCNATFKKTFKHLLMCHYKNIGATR
Chain of H3 (Q9JI35 whole entry): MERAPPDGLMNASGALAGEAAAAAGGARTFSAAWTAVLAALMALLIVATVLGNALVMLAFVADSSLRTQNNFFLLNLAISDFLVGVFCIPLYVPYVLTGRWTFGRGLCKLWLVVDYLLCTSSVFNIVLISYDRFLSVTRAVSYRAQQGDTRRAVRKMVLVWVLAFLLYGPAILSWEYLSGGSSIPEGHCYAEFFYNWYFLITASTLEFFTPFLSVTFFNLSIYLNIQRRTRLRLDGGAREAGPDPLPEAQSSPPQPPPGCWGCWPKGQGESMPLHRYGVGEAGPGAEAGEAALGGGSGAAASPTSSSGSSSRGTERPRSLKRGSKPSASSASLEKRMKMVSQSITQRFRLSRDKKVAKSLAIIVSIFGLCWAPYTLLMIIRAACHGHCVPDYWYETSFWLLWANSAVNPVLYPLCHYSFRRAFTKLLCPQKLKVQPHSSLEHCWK
Chain of 5-HT1e (P28566 whole entry): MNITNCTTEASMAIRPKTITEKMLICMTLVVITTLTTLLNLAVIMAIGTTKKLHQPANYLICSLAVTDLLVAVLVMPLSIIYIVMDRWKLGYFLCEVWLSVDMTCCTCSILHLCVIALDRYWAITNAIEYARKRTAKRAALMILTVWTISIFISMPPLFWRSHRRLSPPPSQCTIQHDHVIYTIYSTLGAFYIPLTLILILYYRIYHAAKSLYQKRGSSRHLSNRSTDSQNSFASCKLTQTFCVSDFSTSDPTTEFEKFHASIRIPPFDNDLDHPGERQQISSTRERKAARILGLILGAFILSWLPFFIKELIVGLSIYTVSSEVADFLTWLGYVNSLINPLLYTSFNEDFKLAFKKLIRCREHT
Chain of 5-HT2a (P28223 whole entry): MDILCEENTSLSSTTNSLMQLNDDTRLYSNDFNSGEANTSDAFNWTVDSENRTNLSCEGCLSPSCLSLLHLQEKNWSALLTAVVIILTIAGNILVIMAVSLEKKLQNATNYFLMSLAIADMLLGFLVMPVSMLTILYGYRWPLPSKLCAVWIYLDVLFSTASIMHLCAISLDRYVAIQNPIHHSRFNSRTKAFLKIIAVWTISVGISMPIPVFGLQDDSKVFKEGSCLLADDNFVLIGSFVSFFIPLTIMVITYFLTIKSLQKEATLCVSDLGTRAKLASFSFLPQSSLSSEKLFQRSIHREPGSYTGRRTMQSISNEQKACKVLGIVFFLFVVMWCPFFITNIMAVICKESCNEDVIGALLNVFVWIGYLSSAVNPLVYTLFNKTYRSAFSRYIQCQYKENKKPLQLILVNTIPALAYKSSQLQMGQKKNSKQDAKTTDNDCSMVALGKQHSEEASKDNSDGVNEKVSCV
Chain of H1 (P35367 whole entry): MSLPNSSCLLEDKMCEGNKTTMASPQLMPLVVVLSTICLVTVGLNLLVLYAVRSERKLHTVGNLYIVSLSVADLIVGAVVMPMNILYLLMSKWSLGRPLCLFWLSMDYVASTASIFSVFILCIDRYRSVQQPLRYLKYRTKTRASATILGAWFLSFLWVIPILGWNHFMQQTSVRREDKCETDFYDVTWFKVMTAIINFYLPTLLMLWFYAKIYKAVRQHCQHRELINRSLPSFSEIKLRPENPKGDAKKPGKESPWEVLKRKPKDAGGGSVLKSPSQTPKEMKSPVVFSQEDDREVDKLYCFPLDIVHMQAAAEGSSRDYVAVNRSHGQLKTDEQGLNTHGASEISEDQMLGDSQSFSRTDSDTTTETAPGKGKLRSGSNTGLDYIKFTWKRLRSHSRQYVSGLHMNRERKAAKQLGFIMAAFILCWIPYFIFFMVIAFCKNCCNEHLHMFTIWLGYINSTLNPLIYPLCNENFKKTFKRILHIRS
Chain of 5-HT5a (P47898 whole entry): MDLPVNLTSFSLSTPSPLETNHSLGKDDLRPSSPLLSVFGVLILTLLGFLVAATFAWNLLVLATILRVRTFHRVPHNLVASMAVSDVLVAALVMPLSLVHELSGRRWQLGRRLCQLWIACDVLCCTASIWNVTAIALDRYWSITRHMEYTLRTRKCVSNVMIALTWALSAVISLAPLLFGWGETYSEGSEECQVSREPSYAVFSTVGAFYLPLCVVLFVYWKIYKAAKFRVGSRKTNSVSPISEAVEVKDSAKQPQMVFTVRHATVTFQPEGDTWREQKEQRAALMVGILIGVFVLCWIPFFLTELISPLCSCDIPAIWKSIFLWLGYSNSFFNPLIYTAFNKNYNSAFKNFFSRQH

| Structure (SMILES) | Ki (human NOP) [µM] | Ki (5-HT1a; [1]) [µM] | Ki (H4) [µM] | Ki (M5) [µM] | Ki (5-HT1e) [µM] | Ki (α1D) [µM] | Ki (M2; [2]) [µM] | Ki (5-HT5a) [µM] | Ki (H3) [µM] | Ki (5-HT2a) [µM] | Ki (5-HT6) [µM] | Ki (H1) [µM] | Ki (α1B; [3]) [µM] | Ki (β3) [µM] | Ki (D3) [µM] | Ki (5-HT3) [µM] | other results |
| --- | --- | --- | --- | --- | --- | --- | --- | --- | --- | --- | --- | --- | --- | --- | --- | --- | --- |
| N=C(N)Nc1ccc2[nH]c3c(c2c1)C[C@@]1(O)[C@H]2Cc4ccc(O)c5c4[C@@]1(CCN2CC1CC1)[C@H]3O5 [GNTI, 5′-guanidinonaltrindole] | 2.5 | ≥ 10 | ≥ 10 | ≥ 10 | ≥ 10 | ≥ 10 | 5.37 | ≥ 10 | ≥ 10 | ≥ 10 | ≥ 10 | ≥ 10 | 8.9 | ≥ 10 | ≥ 10 | ≥ 10 | Ki (M2; Ki, binding curve File S1, M2 Receptor, [3H]QNB (0.1 nM), Muscarinic Binding Buffer): 5.36 µM; Ki (M2; M2, radioligand displacement (Table 1), read-out: K i): 5.4 µM; Ki (α1B; Ki, binding curve File S1 (GNTI page), Alpha1B Receptor, [125I]HEAT (0.05 nM)): 8.91 µM |
| CC(C)[C@@H](CN1CC[C@@](C)(c2cccc(O)c2)[C@@H](C)C1)NC(=O)[C@H]1Cc2ccc(O)cc2CN1 [JDTic] |  | ≥ 10 |  |  |  |  |  |  |  |  |  |  |  |  |  |  | Ki (human NOP; NOP, displacing [3H]N/OFQ (Table 1), read-out: K i): 0.012 µM; Ki (H4; [3H] radioligand Histamine, Human, Cloned, read-out: Ki): ≥ 10 µM; Ki (M5; [4]): ≥ 10 µM; Ki (5-HT1e; [3H] radioligand 5HT, Human, Cloned, read-out: Ki): ≥ 10 µM; Ki (α1D; read-out: Ki): ≥ 10 µM; Ki (M2; [4]): ≥ 10 µM; Ki (M2; binding curve File S1, M2 Receptor, [3H]QNB (0.1 nM), Muscarinic Binding Buffer, read-out: Ki): > 10 µM; Ki (5-HT5a; [5]): ≥ 10 µM; Ki (H3; [3H] radioligand α-methylhistamine, Guinea Pig, Cloned, read-out: Ki): ≥ 10 µM; Ki (5-HT2a; [3H] radioligand Ketanserin, Human, Cloned, read-out: Ki): ≥ 10 µM; Ki (5-HT6; [5]): ≥ 10 µM; Ki (H1; [3H] radioligand Pyrilamine, Human, Cloned, read-out: Ki): ≥ 10 µM; Ki (α1B; [3H] radioligand Prazosin, Human, Cloned, read-out: Ki): 4.81 µM; Ki (α1B; binding curve File S1 (JDTic page), Alpha1B Receptor, [125I]HEAT (0.12 nM), read-out: Ki): 4.81 µM; Ki (α1B; α1B, radioligand displacement (Table 1), read-out: K i): 4.8 µM; Ki (β3; [3H] radioligand CGP12177, Human, Cloned, read-out: Ki): ≥ 10 µM; Ki (D3; [3H] radioligand N-Methylspiperone, Human, Cloned, read-out: Ki): ≥ 10 µM; Ki (5-HT3; [3H] radioligand LY278584, Human, Cloned, read-out: Ki): ≥ 10 µM |
| Oc1ccc2c3c1O[C@H]1c4[nH]c5c(c4C[C@@]4(O)[C@@H](C2)N(CC2CC2)CC[C@]314)C[C@@]1(O)[C@H]2Cc3ccc(O)c4c3[C@@]1(CCN2CC1CC1)[C@H]5O4 [nor-BNI, Nor-binaltorphimine] | 4.4 | 1.11 | ≥ 10 | ≥ 10 | ≥ 10 | ≥ 10 | ≥ 10 | ≥ 10 | ≥ 10 | ≥ 10 | ≥ 10 | ≥ 10 | ≥ 10 | ≥ 10 | ≥ 10 | ≥ 10 | Ki (5-HT1a; 5-HT1a, radioligand displacement (Table 1)): 1.1 µM; Ki (5-HT1a; binding curve File S1, 5-HT1A Receptor, [3H]8-OH-DPAT (0.5 nM), Standard Binding Buffer): 1.11 µM |
